Results: patent US20120022040A1, “ANTIMICROBIALS” (priority 2008, published 2012)
≈ marks a conversion by molar mass, not a printed value.

Tests used:
MRSA 43300 [1] = assay: MIC90 determination by serial dilution; format: cell-based, methicillin-resistant Staphylococcus aureus; details: Staphylococcus aureus, dilution series from the Max Conc.
Protocol: (§1) Compounds (1), (2), and (3) were tested to determine MIC90 values.
(§2) Rules for determining MIC values: Each extract has a starting concentration which is diluted 7 times for a total of 8 dilutions. The MIC is the lowest dilution without growth. Each serial dilution is repeated three times for three identical dilutions. For reporting the results, the following rules were used. Inconsistent values were thrown out. For instance, the MIC value reported for an extract with MIC readings of 4, 4, and 2 would be four (the 2 is thrown out). If the readings are all different and in series like 2, 4, and 8, the median MIC value of 4 would be reported. If the three values are all different and not in series, an error is reported. Besides the three identical dilutions at the same starting concentration, each extract has dilutions starting at three different concentrations: 64, 4, and 0.25 μg/mL. Each extract therefore has 3 identical dilution series at 3 different starting concentrations—a total of 24 dilutions. The dilutions overlap which can result in a disagreement in MIC values for two different starting dilutions. Since a small amount of error is introduced with each dilution, the MIC readings with the fewest dilutions are selected as the correct MIC values.
(§3) Abbreviations: MRSA=methicillin-resistant Staphylococcus aureus; SA=Staphylococcus aureus; PA=Pseudomonas aeruginosa; Kleb=Klebsiella pneumonia; EC=Escherichia coli; VSE=Vancomycin-sensitive enterococci faecium.

EC 25922 [2] = assay: MIC90 determination by serial dilution; format: cell-based; details: Escherichia coli, dilution series from the Max Conc.
Protocol: as §1, §2, §3

PA 27853 [3] = assay: MIC90 determination by serial dilution; format: cell-based; details: Pseudomonas aeruginosa, dilution series from the Max Conc.
Protocol: as §1, §2, §3

SA 29213 [4] = assay: MIC90 determination by serial dilution; format: cell-based; details: Staphylococcus aureus, dilution series from the Max Conc.
Protocol: as §1, §2, §3

Kleb 4352 [5] = assay: MIC90 determination by serial dilution; format: cell-based, Klebsiella pneumonia; details: Klebsiella pneumoniae, dilution series from the Max Conc.
Protocol: as §1, §2, §3

VSE 49452 [6] = assay: MIC90 determination by serial dilution; format: cell-based, Vancomycin-sensitive enterococci faecium; details: dilution series from the Max Conc.
Protocol: as §1, §2, §3

VSE 6569 [7] = assay: MIC90 determination by serial dilution; format: cell-based, Vancomycin-sensitive enterococci faecium; details: dilution series from the Max Conc.
Protocol: as §1, §2, §3

MRSA 43300 [8] = assay: IC50 determination (XlFit dose response model 200); format: cell-based, methicillin-resistant Staphylococcus aureus; details: Staphylococcus aureus, average of 3 replicates
Protocol: (§4) Compounds (1), (2), and (3) were tested to determine IC50 values. IC50 was determined using XlFit add-in using dose response model 200. The average of 3 replicates is presented for each compound in Table 2.

EC 25922 [9] = assay: IC50 determination (XlFit dose response model 200); format: cell-based; details: Escherichia coli, average of 3 replicates
Protocol: as §4

PA 27853 [10] = assay: IC50 determination (XlFit dose response model 200); format: cell-based; details: Pseudomonas aeruginosa, average of 3 replicates
Protocol: as §4

SA 29213 [11] = assay: IC50 determination (XlFit dose response model 200); format: cell-based; details: Staphylococcus aureus, average of 3 replicates
Protocol: as §4

Kleb 4352 [12] = assay: IC50 determination (XlFit dose response model 200); format: cell-based, Klebsiella pneumonia; details: Klebsiella pneumoniae, average of 3 replicates
Protocol: as §4

VSE 49452 [13] = assay: IC50 determination (XlFit dose response model 200); format: cell-based, Vancomycin-sensitive enterococci faecium; details: average of 3 replicates
Protocol: as §4

VSE 6569 [14] = assay: IC50 determination (XlFit dose response model 200); format: cell-based, Vancomycin-sensitive enterococci faecium; details: average of 3 replicates
Protocol: as §4

SMILES	MIC90 (MRSA 43300 [1])	MIC90 (EC 25922 [2])	MIC90 (PA 27853 [3])	MIC90 (SA 29213 [4])	MIC90 (Kleb 4352 [5])	MIC90 (VSE 49452 [6])	MIC90 (VSE 6569 [7])	IC50 (MRSA 43300 [8])	IC50 (EC 25922 [9])	IC50 (PA 27853 [10])	IC50 (SA 29213 [11])	IC50 (Kleb 4352 [12])	IC50 (VSE 49452 [13])	IC50 (VSE 6569 [14])
O=C1CN(/N=C/c2ccc([N+](=O)[O-])o2)C(=O)N1 [Nitrofurantoin]	8 µg/mL (≈ 33.6 µM)	8 µg/mL (≈ 33.6 µM)	> 32 µg/mL	16 µg/mL (≈ 67.2 µM)	16 µg/mL (≈ 67.2 µM)	8 µg/mL (≈ 33.6 µM)	32 µg/mL (≈ 134 µM)	1.83 µg/mL (≈ 7.67 µM)	3.27 µg/mL (≈ 13.7 µM)	> 32 µg/mL	7.71 µg/mL (≈ 32.4 µM)	3.68 µg/mL (≈ 15.4 µM)	3.57 µg/mL (≈ 15 µM)	2.87 µg/mL (≈ 12.1 µM)
C[C@H]1c2cccc(O)c2C(=O)C2=C(O)[C@]3(O)C(=O)C(C(N)=O)=C(O)[C@@H](N(C)C)[C@@H]3[C@@H](O)[C@@H]21 [Doxycycline]	–	–	32 µg/mL (≈ 72 µM)	–	–	–	–	–	–	6.3 µg/mL (≈ 14.2 µM)	–	–	–	–
C[C@@H](O)[C@H]1C(=O)N2C(C(=O)O)=C(S[C@@H]3CN[C@H](C(=O)N(C)C)C3)[C@H](C)[C@H]12 [Meropenem, meropenem, reference compound]	4 µg/mL (≈ 10.4 µM)	0.06 µg/mL (≈ 0.156 µM)	1 µg/mL (≈ 2.61 µM)	0.25 µg/mL (≈ 0.652 µM)	0.12 µg/mL (≈ 0.313 µM)	16 µg/mL (≈ 41.7 µM)	32 µg/mL (≈ 83.4 µM)	0.037 µg/mL (≈ 0.0965 µM)	0.122 µg/mL (≈ 0.318 µM)	0.945 µg/mL (≈ 2.46 µM)	0.126 µg/mL (≈ 0.329 µM)	0.121 µg/mL (≈ 0.316 µM)	6.74 µg/mL (≈ 17.6 µM)	11.8 µg/mL (≈ 30.8 µM)
O=C(N[C@H](CO)[C@H](O)c1ccc([N+](=O)[O-])cc1)C(Cl)Cl [Chloramphenicol]	4 µg/mL (≈ 12.4 µM)	8 µg/mL (≈ 24.8 µM)	> 64 µg/mL	8 µg/mL (≈ 24.8 µM)	≤ 2 µg/mL	4 µg/mL (≈ 12.4 µM)	≤ 2 µg/mL	< 2 µg/mL	< 2 µg/mL	> 64 µg/mL	> 64 µg/mL	> 64 µg/mL	< 2 µg/mL	< 2 µg/mL
CCC(C)(C)C(=O)C(=O)N1CCCC[C@H]1C(=O)O[C@H](CCc1ccc(OC)c(OC)c1)c1cccc(OCCNC(=O)c2cccc(NC(=O)[C@@H]3C[C@H](SC4=C(C(=O)O)N5C(=O)[C@H]([C@@H](C)O)[C@H]5[C@H]4C)CN3)c2)c1 [(1), (4R,5S,6S)-3-((3S,5S)-5-(3-(2-(3-((R)-3-(3,4-dimethoxyphenyl)-1-((S)-1-(3,3-dimethyl-2-oxopentanoyl)piperidine-2-carbonyloxy)propyl)phenoxy)ethylcarbamoyl)phenylcarbamoyl)pyrrolidin-3-ylthio)-6-((R)-1-hydroxyethyl)-4-methyl-7-oxo-1-azabicyclo[3.2.0]hept-2-ene-2-carboxylic acid]	8 µg/mL (≈ 7.8 µM)	> 64 µg/mL	> 64 µg/mL	2 µg/mL (≈ 1.95 µM)	> 64 µg/mL	16 µg/mL (≈ 15.6 µM)	64 µg/mL (≈ 62.4 µM)	0.265 µg/mL (≈ 0.258 µM)	> 64 µg/mL	> 64 µg/mL	0.942 µg/mL (≈ 0.918 µM)	> 64 µg/mL	6.91 µg/mL (≈ 6.73 µM)	15.2 µg/mL (≈ 14.8 µM)
NCC[C@H](O)C(=O)N[C@@H]1C[C@H](N)[C@@H](O[C@H]2O[C@H](CN)[C@@H](O)[C@H](O)[C@H]2O)[C@H](O)[C@H]1O[C@H]1O[C@H](CO)[C@@H](O)[C@H](N)[C@H]1O [Amikacin]	–	–	1 µg/mL (≈ 1.71 µM)	–	–	–	–	–	–	0.274 µg/mL (≈ 0.468 µM)	–	–	–	–
CCC(C)(C)C(=O)C(=O)N1CCCC[C@H]1C(=O)O[C@H](CCc1ccc(OC)c(OC)c1)c1cccc(OCC(=O)NCCCCCN2C[C@@H](SC3=C(C(=O)O)N4C(=O)[C@H]([C@@H](C)O)[C@H]4[C@H]3C)C[C@H]2C(=O)N(C)C)c1 [(2), (4R,5S,6S)-3-((3S,5S)-1-(5-(2-(3-((R)-3-(3,4-dimethoxyphenyl)-1-((S)-1-(3,3-dimethyl-2-oxopentanoyl)piperidine-2-carbonyloxy)propyl)phenoxy)acetamido)pentyl)-5-(dimethylcarbamoyl)pyrrolidin-3-ylthio)-6-((R)-1-hydroxyethyl)-4-methyl-7-oxo-1-azabicyclo[3.2.0]hept-2-ene-2-carboxylic acid]	8 µg/mL (≈ 7.73 µM)	> 64 µg/mL	> 64 µg/mL	2 µg/mL (≈ 1.93 µM)	> 64 µg/mL	16 µg/mL (≈ 15.5 µM)	32 µg/mL (≈ 30.9 µM)	0.17 µg/mL (≈ 0.164 µM)	> 64 µg/mL	> 64 µg/mL	0.871 µg/mL (≈ 0.842 µM)	> 64 µg/mL	1.6 µg/mL (≈ 1.55 µM)	7.23 µg/mL (≈ 6.99 µM)
CC[C@H]1OC(=O)[C@H](C)[C@@H](O[C@H]2C[C@@](C)(OC)[C@@H](O)[C@H](C)O2)[C@H](C)[C@@H](O[C@@H]2O[C@H](C)C[C@H](N(C)C)[C@H]2O)[C@](C)(O)C[C@@H](C)C(=O)[C@H](C)[C@@H](O)[C@]1(C)O [Erythromycin]	> 64 µg/mL	64 µg/mL (≈ 87.2 µM)	> 64 µg/mL	≤ 2 µg/mL	8 µg/mL (≈ 10.9 µM)	≤ 2 µg/mL	8 µg/mL (≈ 10.9 µM)	> 64 µg/mL	20.7 µg/mL (≈ 28.2 µM)	> 64 µg/mL	< 2 µg/mL	2.21 µg/mL (≈ 3.01 µM)	< 2 µg/mL	2.75 µg/mL (≈ 3.75 µM)
